From US20260182582A1, “METHODS AND COMPOSITIONS FOR BIOPROTECTION OF TOMATOES FROM CLAVIBACTER MICHIGANENSIS SUBSP. MICHIGANENSIS” (The Royal Institution for the Advancement of …, priority 2018, published 2026)
Values joined by “and” are separate entries in the source; they are usually repeats but may differ in a detail not shown here. Identical values can stand only once.

Tested on: Cmm
Test: Agar well diffusion assay against Cmm
Type: cell-based, Clavibacter michiganensis subsp. michiganensis
Description: In addition, the antibacterial activity of various fractions and the purified antibiotic produced by B. pumilus was assessed via agar well diffusion assay. Cmm was grown as described above and a suspension of 100 μL was evenly spread over fresh NBYA plates using sterile spreader. Wells of 6 mm diameter were carefully made in the agar and 50 μL of the test fraction or antibiotic test sample extracted from B. pumilus was poured into the agar well. Sterilized distilled water served as a control treatment.
The antimicrobial activities of Micrococcin P1 at various concentrations were assessed via agar well diffusion assay. A cell suspension of Cmm was overlaid on NBYA and the plates were allowed to air dry. A 50 μL drop of Micrococcin P1 diluted in various concentrations were applied into agar well.

Substance: Micrococcin P1
- antibacterial activity against Cmm, zone of inhibition around the well (50 μL in 6 mm agar well, NBYA, 28° C., 3 days): antimicrobial activity against Cmm
- concentration having the most significant effects (highest concentration tested): 5 mg/L and 4.37 μM
- amount per well needed for growth inhibition zones (per well in 50 μL, NBYA, 3 days 28° C.): ≥ 7.8125 ng
- dose dependence of antibacterial activities (various concentrations, FIG. 7): increased proportional to the Micrococcin P1 concentrations
